# Data as given in patent publication US20150209263A1, “Method and Compositions for Oral Hygiene” (Imrex, Inc., priority 2003, published 2015).
# Entries after “also recorded” stand apart in the source; their conditions may differ.
# Tested on: cats with recalcitrant stomatitis
# Test: Treatment of cats with recalcitrant stomatitis (case reports)
# Assay type: in vivo
# Details: single cat case reports
# Experimental: Several cats experiencing recalcitrant stomatitis were treated using oral hygiene composition of the present invention further comprising emilgase. All compositions comprised 0.05% emilgase. All treatments were 5 mL/500 mL water (10 mL/L rate). If additional water was required after the 500 mL was consumed, plain water was offered. Any unconsumed solution was discarded after 24 hours and fresh solution was mixed.
row,SMILES,response of stomatitis to treatment
1,CN1CCN(c2c(F)cc3c(=O)c(C(=O)O)cn4c3c2OCN4C)CC1 [Zeniquin],responded well
2,CC[C@H]1OC(=O)[C@H](C)[C@@H](O[C@H]2C[C@@](C)(OC)[C@@H](O)[C@H](C)O2)[C@H](C)[C@@H](O[C@@H]2O[C@H](C)C[C@H](N(C)C)[C@H]2O)[C@](C)(O)C[C@@H](C)CN(C)[C@H](C)[C@@H](O)[C@]1(C)O [Zithromax],temporary responses; also recorded: did not respond
